Source: patent US12421242B2, “Substituted tetrahydropyrrolo-pyridinone compounds and their use in treating medical conditions” (Karuna Therapeutics, Inc., priority 2022, dated 2025)
pEC50: −log10 of the molar value.

What was measured:
hM4 receptors = biological target: T1, hM4 receptors (Homo sapiens, UniProt P08173); test: Human M4 PAM pERK assay; type: cell-based; conditions: PAM mode
T1 construct: expressed in transfected cells; host or cells: CHO cells
T1 sequence (P08173 1-479): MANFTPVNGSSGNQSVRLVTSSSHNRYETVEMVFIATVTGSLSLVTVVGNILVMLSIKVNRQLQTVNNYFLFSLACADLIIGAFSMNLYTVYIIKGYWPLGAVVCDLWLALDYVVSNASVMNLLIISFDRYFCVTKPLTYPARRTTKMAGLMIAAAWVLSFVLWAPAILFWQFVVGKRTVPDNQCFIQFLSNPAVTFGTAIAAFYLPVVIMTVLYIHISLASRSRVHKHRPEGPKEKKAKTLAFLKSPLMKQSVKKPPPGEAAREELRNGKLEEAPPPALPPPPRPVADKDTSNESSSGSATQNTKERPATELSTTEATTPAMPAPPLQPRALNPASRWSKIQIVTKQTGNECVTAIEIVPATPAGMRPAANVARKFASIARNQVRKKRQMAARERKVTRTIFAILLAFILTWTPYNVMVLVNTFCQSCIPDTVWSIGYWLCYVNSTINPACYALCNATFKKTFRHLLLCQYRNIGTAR
Protocol: (§1) Chinese hamster ovary (CHO) cells expressing either hM4 or rM4 receptors were frozen in assay ready vials (5×10^6 cells/vial) after bulking-up in culture. The day before an assay, vial(s) were thawed and cells seeded in 384 well white proxiplates at 1000/well for hM4 cells and at 2000/well for rM4 cells, in 10 μL of growth media (Hams/F12 with glutamax and 10% FCS) and incubated overnight at 37° C./5% CO2.
(§2) On the following morning, the growth media was removed by ‘flicking out’ over a bin, patting the inverted plate onto tissue, and then replacing with 10 μL of wash media (Hams/F12 with glutamax and 8 mM HEPES, NB: serum free). Then, the wash media was removed in the same way and replaced with 8 μL/well of the serum free media. Plates were then re-incubated for a further 4 hours at 37° C./5% CO2.
(§3) Compounds for testing were solubilized to 10 mM in DMSO and compound addition plates, consisting of ten-point concentration response curves (CRC) in duplicate points (10 μM top concentration, […]), were prepared by acoustic dispensing and the compound management group.
(§4) After the 4-hour incubation in serum free media, a 4 μL aliquot of the 3× compound solution containing an EC20 of acetylcholine (10 nM final concentration) was added to the cell plate using a 384 well plate to plate transfer. Then, the plate lid was replaced, and the cells incubated for 5 mins at 37° C./5% CO2. Following this final incubation, all cellular processes were stopped by the addition of 4 μL/well of lysis and blocking buffer and plates were incubated for 30 minutes at RT on an orbital shaker (gentle setting). Then, a final addition of 4 μL/well of antibody detection mix, containing both the Europium-Cryptate (donor) and d2 (acceptor) tagged detection components, was added followed by a further 2-hour incubation at RT, and then the plate was read using a TR-FRET (time resolved fluorescence resonance energy transfer) based protocol.

rM4 receptors = biological target: T2, rM4 receptors (Rattus norvegicus, UniProt P08485); test: Rat M4 PAM pERK assay; type: cell-based; conditions: PAM mode
T2 construct: expressed in transfected cells; host or cells: CHO cells
T2 sequence (P08485 1-478): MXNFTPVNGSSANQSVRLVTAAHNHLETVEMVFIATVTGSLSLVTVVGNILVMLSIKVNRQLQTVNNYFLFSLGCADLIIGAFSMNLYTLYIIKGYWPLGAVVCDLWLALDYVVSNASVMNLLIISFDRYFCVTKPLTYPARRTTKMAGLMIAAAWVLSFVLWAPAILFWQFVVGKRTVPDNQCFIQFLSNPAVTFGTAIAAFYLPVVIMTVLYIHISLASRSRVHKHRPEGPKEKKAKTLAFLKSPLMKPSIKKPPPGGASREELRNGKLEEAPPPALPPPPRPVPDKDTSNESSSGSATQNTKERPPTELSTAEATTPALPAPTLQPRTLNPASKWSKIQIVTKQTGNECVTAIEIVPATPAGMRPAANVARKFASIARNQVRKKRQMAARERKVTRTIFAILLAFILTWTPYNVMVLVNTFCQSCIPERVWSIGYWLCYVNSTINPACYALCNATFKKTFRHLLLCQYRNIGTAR
Protocol: as §1, §2, §3, §4

human M4 receptor = biological target: T3, human M4 receptor (Homo sapiens, UniProt P08173); test: M4 GTPγS PAM assay; type: biochemical; conditions: CHO-K1 membranes expressing human M4, with EC20 acetylcholine (40 nM)
T3 construct: expressed in transfected cells
T3 sequence (P08173 1-479): T1 sequence (P08173 1-479)
Protocol: The M4 GTPγS PAM method was used. Membranes were prepared for GTPgS binding assays from CHO-K1 cells stably expressing human M4 receptor. Briefly, cells were grown in 5-layer cell culture flasks. Cells were washed with 50 mL of PBS and then dissociated with 0.05% trypsin. Dissociated cells were then collected by centrifugation at 650×g for 8 minutes at 4° C. Pellets were washed again in PBS by centrifugation and resuspended in 30 mL of 20 mM HEPES, 10 mM EDTA, pH 7.4. After sitting on ice for 30 min, membranes were collected by centrifugation at 50000×g for 15′ at 4° C., resuspended in 30 mL of 20 mM HEPES, 0.1 mM EDTA, pH 7.4 and collected again by centrifugation. Pellets were then washed twice by centrifugation in 30 mL of 20 mM HEPES, pH 7.4, and stored at −80° C. until the day of the assay. On the day of the assay, pellets were thawed on ice and resuspended in 1 mL of 20 mM HEPES, pH 7.4, 10 mM MgCl2, 100 mM NaCl using dounce homogenization. Membrane protein concentration is determined by BCA protein assay (Promega, Madison, WI) according to Promega guidelines.
On the day of the assay, serial dilutions of test PAM compounds were brought up in assay buffer (20 mM HEPES, 10 mM MgCl2, 100 mM NaCl) at 4× final assay concentration. […] of membrane homogenates (containing […] of membrane protein) were prepared in assay buffer supplemented with GDP at 4× final assay concentration (final assay concentration of GDP is 5 uM for M2 and 0.1 uM for M4) and dispensed into 96 well polypropylene, U-bottom Greiner plates. […] of vehicle or test PAM compound at 4× of final assay concentration diluted in the assay buffer were added to membrane and plates are incubated for 10-15 minutes at room temperature with gentle shaking. Then, […] of EC20 acetylcholine in assay buffer at 4× final assay concentration was added to assay plates (EC20 final assay concentrations was 40 nM for human M4).
Plates were then incubated, with shaking, for an additional 10-15 minutes. 25 mL of 0.4 nM ^35S-GTP (Perkin Elmer, Waltham, MA) in assay buffer was added to assay mixtures. The binding reaction is left on the shaker for 1 hour at room temperature. Membranes in assay reactions were then transferred to GF/C filter plates (Unifilter, Perkin Elmer) and washed three times using a FilterMate Harvester (Perkin Elmer) with cold assay buffer containing no GDP. Filter plates were then dried at 40° C. overnight followed by the addition of […] of Beta Plate Scintillation liquid. Plates are top and bottom sealed before being read on TopCount scintillation counter (Perkin Elmer, Waltham, MA).

| pEC50 (hM4 receptors) | pEC50 (rM4 receptors) | pEC50 (human M4 receptor) | Structure (SMILES) |
| --- | --- | --- | --- |
| 6.30 to 7.00 | 5.70 to 6.30 | 6.30 to 7.00 | COc1c2c(n(C)c(=O)c1C)CN(C(=O)c1cnn(C(F)(F)F)c1)C2C (racemic) [Compound I-82, 4-Methoxy-1,3,5-trimethyl-6-(1-(trifluoromethyl)-1H-pyrazole-4-carbonyl)-1,5,6,7-tetrahydro-2H-pyrrolo[3,4-b]pyridin-2-one] |
| > 7.00 | 5.70 to 6.30 | 5.70 to 6.30 | COc1c2c(n(C)c(=O)c1Cl)CN(C(=O)c1cnn(C(F)(F)F)c1)C2C (single isomer, unassigned) [Compound I-74] |
| < 5.70 | < 5.70 | < 5.70 | COc1c2c(n(C)c(=O)c1Cl)CN(C(=O)c1cnn(C(F)(F)F)c1)C2C (single isomer, unassigned) [Compound I-75] |
| 6.30 to 7.00 | < 5.70 | < 5.70 | COc1cc(=O)n(C)c2c1C(C)N(C(=O)c1cnn(C(F)(F)F)c1)C2 (single isomer, unassigned) [Compound I-80] |
| < 5.70 | < 5.70 | < 5.70 | COc1cc(=O)n(C)c2c1C(C)N(C(=O)c1cnn(C(F)(F)F)c1)C2 (single isomer, unassigned) [Compound I-81] |
| > 7.00 | 5.70 to 6.30 | 6.30 to 7.00 | COc1c2c(n(C)c(=O)c1C)CN(C(=O)c1cnn(C(F)(F)F)c1)C2C (single isomer, unassigned) [Compound I-83] |
| 5.70 to 6.30 | < 5.70 | < 5.70 | COc1c2c(n(C)c(=O)c1C)CN(C(=O)c1cnn(C(F)(F)F)c1)C2C (single isomer, unassigned) [Compound I-84] |
| < 5.70 | < 5.70 | < 5.70 | Cc1cc(=O)n(C)c2c1C(C)N(C(=O)c1cnn(C(F)(F)F)c1)C2 (single isomer, unassigned) [Compound I-92, 1,4,5-Trimethyl-6-(1-(trifluoromethyl)-1H-pyrazole-4-carbonyl)-1,5,6,7-tetrahydro-2H-pyrrolo[3,4-b]pyridin-2-one] |
| < 5.70 | < 5.70 | < 5.70 | Cc1cc(=O)n(C)c2c1C(C)N(C(=O)c1cnc(C(F)(F)F)s1)C2 (single isomer, unassigned) [Compound I-94] |
| 6.30 to 7.00 | < 5.70 | 5.70 to 6.30 | Cc1cc(=O)n(C)c2c1C(C)N(C(=O)c1cnc(C(F)(F)F)s1)C2 (single isomer, unassigned) [Compound I-95] |
| < 5.70 | < 5.70 | < 5.70 | Cc1cc(=O)n(C)c2c1C(C)N(C(=O)c1cnc(C3CC3)s1)C2 (single isomer, unassigned) [Compound I-96] |
| < 5.70 | – | < 5.70 | Cc1cc(=O)n(C)c2c1CN(C(=O)c1cnn(C)c1)C2C (single isomer, unassigned) [Compound I-106] |
| < 5.70 | – | < 5.70 | Cc1c2c(n(C)c(=O)c1Cl)CN(C(=O)c1cn(C)c(C)n1)C2 [Compound I-11] |
| < 5.70 | – | < 5.70 | Cc1c2c(n(C)c(=O)c1Cl)CN(C(=O)c1cncc(C(F)(F)F)c1)C2 [Compound I-48] |
| 5.70 to 6.30 | < 5.70 | – | COc1c2c(n(C)c(=O)c1C)CN(C(=O)c1cnn(CC(F)(F)F)c1)C2 [Compound I-85, 4-Methoxy-1,3-dimethyl-6-(1-(2,2,2-trifluoroethyl)-1H-pyrazole-4-carbonyl)-1,5,6,7-tetrahydro-2H-pyrrolo[3,4-b]pyridin-2-one] |
| 6.30 to 7.00 | < 5.70 | – | COc1c2c(n(C)c(=O)c1C)CN(C(=O)c1cnc(CC3CC3)s1)C2 [Compound I-86] |
| > 7.00 | < 5.70 | – | CCOc1c2c(n(C)c(=O)c1C)CN(C(=O)c1cnn(C(F)(F)F)c1)C2 [Compound I-88, 4-Ethoxy-1,3-dimethyl-6-(1-(trifluoromethyl)-1H-pyrazole-4-carbonyl)-1,5,6,7-tetrahydro-2H-pyrrolo[3,4-b]pyridin-2-one] |
| 6.30 to 7.00 | < 5.70 | – | CSc1c2c(n(C)c(=O)c1C)CN(C(=O)c1cnc(CC3CC3)s1)C2 [Compound I-91] |
| > 7.00 | < 5.70 | – | Cc1cc(=O)n(C)c2c1C(C)N(C(=O)c1cnn(C(F)(F)F)c1)C2 (stereo not drawn) [Compound I-93] |
| < 5.70 | – | < 5.70 | Cc1cc(=O)n(C)c2c1CN(C(=O)c1cnn(C)c1)C2C (stereo not drawn) [Compound I-105, 1,4,7-Trimethyl-6-(1-methyl-1H-pyrazole-4-carbonyl)-1,5,6,7-tetrahydro-2H-pyrrolo[3,4-b]pyridin-2-one] |
| 6.30 to 7.00 | < 5.70 | – | Cc1c2c(n(C)c(=O)c1C(F)(F)F)CN(C(=O)c1cnn(C)c1)C2 [Compound I-110, 1,4-Dimethyl-6-(1-methyl-1H-pyrazole-4-carbonyl)-3-(trifluoromethyl)-1,5,6,7-tetrahydro-2H-pyrrolo[3,4-b]pyridin-2-one] |
| < 5.70 | 6.30 to 7.00 | – | Cc1c2c(n(C)c(=O)c1C)CN(C(=O)c1ccc3nc(C4CC4)sc3c1)C2 [Compound I-111, 6-(2-Cyclopropylbenzo[d]thiazole-6-carbonyl)-1,3,4-trimethyl-1,5,6,7-tetrahydro-2H-pyrrolo[3,4-b]pyridin-2-one] |
| > 7.00 | 6.30 to 7.00 | – | Cc1c2c(n(C)c(=O)c1F)CN(C(=O)c1cnn(C(F)(F)F)c1)[C@@H]2C [Compound I-114, (R)-3-Fluoro-1,4,5-trimethyl-6-(1-(trifluoromethyl)-1H-pyrazole-4-carbonyl)-1,5,6,7-tetrahydro-2H-pyrrolo[3,4-b]pyridin-2-one] |
